Data reported in patent US8507411B2, “Neoglycorandomization and digitoxin analogs” (priority 2004, dated 2013).
Like-named read-outs stand apart in the source and are kept apart here.

Key:
MCF7 = assay: High-throughput calcein AM cytotoxicity assay, MCF7; assay type: cell-based, human; settings: MCF7 cells
Source text: (§1) Standard errors are depicted with error bars.

Hep3B = assay: High-throughput calcein AM cytotoxicity assay, Hep3B; assay type: cell-based, human; settings: Hep 3B cells
Source text: as §1

NmuMG = assay: cells; assay type: cell-based, mouse
Source text: (§2) In the assay, live cells were distinguished by the presence of a ubiquitous intracellular enzymatic activity which converts the non-fluorescent cell-permeable molecule calcein AM to the intensely fluorescent molecule calcein, which is retained within live cells. The IC50 value for each library member represents at least six replicates of dose-response experiments conducted over five concentrations using two-fold dilutions. […] Standard errors are depicted with error bars. Numerical values and corresponding error values can be found in Table 4. Du145: […]; MCF7: human breast carcinoma; HCT-116: human colon carcinoma, Hep3B: human liver carcinoma; SF-268: human CNS glioblastoma; SK-OV-3: human ovary adenocarcinoma; NCI-H460: human lung carcinoma; A549: human lung adenocarcinoma; NCI/ADR-RES: human breast carcinoma; NmuMG: mouse mammary normal epithelial.
(§3) Cell Culture: All cell lines except NmuMG were maintained in RPMI 1640 medium from InVitrogen (Cat No. 11875-085) supplemented with 10% w/v fetal bovine serum (FBS) from ICN (Cat No. 2916154) and penicillin-streptomycin (PS) (100 U/mL and 100 μg/mL) from InVitrogen (Cat No. 15140-122). NmuMG cells were maintained in DMEM medium from InVitrogen (Cat No. 11965-084) supplemented with 10% w/v fetal bovine serum (FBS) from ICN (Cat No. 2916154), 10 μg/ml insulin (InVitrogen Cat No 12585-014), and penicillin-streptomycin (PS) (100 U/mL and 100 μg/mL) from InVitrogen (Cat No. 15140-122). Cells were harvested by trypsinization using 0.25% w/v trypsin and 0.1% w/v EDTA from InVitrogen (Cat No. 15-050-057) and then counted in a hemocytometer in duplicate with better than 10% agreement in field counts. Cells were plated at a cell density of 10,000-15,000 cells/well of each Corning Costar 96-well black tissue culture treated microtiter plate (Fisher Cat No. 07-200-627). Cells were grown for 1 h at 37° C., with 5% CO2 in a humidified incubator to allow cell attachment to occur before compound addition.
(§4) Library Member Handling and Preparation for Cytotoxicity Assays: Library members were stored at −20° C. under dessicating conditions before the assay. Library member stocks (100×) were prepared in Corning Costar polypropylene 96-well V-bottom polypropylene microtiter plates (Fisher Cat No. 07-200-695). Five serial 1:2 dilutions were made with anhydrous DMSO at 100× the final concentration used in the assay.
(§5) Library Member Addition: The library member-containing plates were diluted 1:10 with complete cell culture media. The 10× stocks (10 μL) were added to the attached cells using a Biomek FX liquid handler (Beckman-Coulter). Library member stocks (10 μL) were added to 90 μL of cells in each plate to insure full mixing of stocks with culture media using a Beckman FX liquid handler with 96-well head.
(§6) Determination of Cytotoxicity: Cells were incubated with the library members for 72 h before fluorescence reading. Test plates were removed from the incubator and washed 1× in sterile PBS to remove serum containing calcium esterases. Calcein AM reagent (30 μL, […]) was added and the cells were incubated for 30 min at 37° C. Plates were read for emission using a fluorescein filter (excitation 485 nm, emission 535 nm).
(§7) IC50 Calculation: For each library member, at least six dose response experiments were conducted. […] To calculate IC50, percent inhibitions were plotted as a function of log [concentration] and then fit to a four-parameter logistic model that allowed for a variable Hill slope using XLfit 4.1.
(§8) Cytotoxicity Assays. All cell lines except NmuMG were maintained in RPMI 1640 medium supplemented with 10% w/v fetal bovine serum (FBS) and penicillin-streptomycin (PS) (100 U/mL and 100 μg/mL).

A549 = assay: High-throughput calcein AM cytotoxicity assay, A549; assay type: cell-based, human; settings: A549 cells
Source text: as §1

HCT-116 = assay: High-throughput calcein AM cytotoxicity assay, HCT-116; assay type: cell-based, human; settings: HCT-116 cells
Source text: as §1

NCI-H460 = assay: High-throughput calcein AM cytotoxicity assay, NCI-H460; assay type: cell-based, human; settings: NCI-H460 cells
Source text: as §1

Du145 = assay: High-throughput calcein AM cytotoxicity assay, Du145; assay type: cell-based, human; settings: Du145 cells
Source text: as §1

NCI/ADR-RES = assay: cells; assay type: cell-based, human; settings: NCI/ADR-RES cells
Source text: as §2, §3, §4, §5, §6, §7, §8

SK-OV-3 = assay: cells; assay type: cell-based, human; settings: SK-OV-3 cells
Source text: as §2, §3, §4, §5, §6, §7, §8

SF-268 = assay: cells; assay type: cell-based, human; settings: SF-268 cells
Source text: as §2, §3, §4, §5, §6, §7, §8

[1] = NmuMG mouse mammary normal epithelial control line, read-out: IC50, NmuMG
[2] = NmuMG cells (mouse mammary normal epithelial control line), read-out: IC50

Compound | IC50 (MCF7; read-out: IC50, MCF7) | IC50 (Hep3B; read-out: IC50, Hep 3B) | IC50 (NmuMG; [1]) | IC50 (A549; read-out: IC50, A549) | IC50 (HCT-116; read-out: IC50, HCT-116) | IC50 (NCI-H460; read-out: IC50, NCI-H460) | IC50 (Du145; read-out: IC50, Du145) | IC50 (NCI/ADR-RES; read-out: IC50, NCI/ADR-RES) | IC50 (SK-OV-3; read-out: IC50, SK-OV-3) | IC50 (SF-268; read-out: IC50, SF-268) | IC50 (MCF7; read-out: IC50) | IC50 (Hep3B; read-out: IC50) | IC50 (NmuMG; [2]) | IC50 (A549; read-out: IC50) | IC50 (HCT-116; read-out: IC50) | IC50 (NCI-H460; read-out: IC50) | IC50 (Du145; read-out: IC50) | IC50 (NCI/ADR-RES; read-out: IC50) | IC50 (SK-OV-3; read-out: IC50) | IC50 (SF-268; read-out: IC50)
CON(C1CCC2(C)C(CCC3C2CCC2(C)C(C4=CC(=O)OC4)CCC32O)C1)C1OC(CO)C(O)C(O)C1O [19α, L-altroside] | > 25 µM | > 25 µM | > 25 µM | > 25 µM | > 25 µM | > 25 µM | > 25 µM | > 25 µM | > 25 µM | > 25 µM |  |  |  |  |  |  |  |  |  | 
CON(C1CCC2(C)C(CCC3C2CCC2(C)C(C4=CC(=O)OC4)CCC32O)C1)C1OC(CO)C(O)C(O)C1O [21α, L-galactoside] | > 25 µM | > 25 µM | > 25 µM | > 25 µM | > 25 µM | > 25 µM | > 25 µM | > 25 µM | > 25 µM | > 25 µM |  |  |  |  |  |  |  |  |  | 
CON([C@H]1CC[C@@]2(C)[C@H](CC[C@@H]3[C@@H]2CC[C@]2(C)[C@@H](C4=CC(=O)OC4)CC[C@]32O)C1)[C@H]1C[C@@H](O)[C@@H](O)[C@@H](CO)O1 [9β, 2-deoxy-D-galactoside] | 5.1 µM | 3.6 µM | > 25 µM | 1.3 µM | 10 µM | 2 µM | 7 µM | 0.9 µM | 4 µM | 8 µM |  |  |  |  |  |  |  |  |  | 
CON(C1CCC2(C)C(CCC3C2CCC2(C)C(C4=CC(=O)OC4)CCC32O)C1)C1OC(CO)C(O)C(O)C1O [40α, D-taloside] |  |  |  |  |  |  |  |  |  |  | > 25 µM | > 25 µM | > 25 µM | > 25 µM | > 25 µM | > 25 µM | > 25 µM | > 25 µM | > 25 µM | > 25 µM
CON(C1CCC2(C)C(CCC3C2CCC2(C)C(C4=CC(=O)OC4)CCC32O)C1)C1OC(CO)C(O)C(O)C1O [39β, L-taloside] | 1.8 µM | 0.96 µM | 0.5 µM | 0.89 µM | 2.3 µM | 1.1 µM | 0.76 µM | 1 µM | 1.5 µM | 1.4 µM |  |  |  |  |  |  |  |  |  | 
CON(C1CCC2(C)C(CCC3C2CCC2(C)C(C4=CC(=O)OC4)CCC32O)C1)C1OC(CO)C(O)CC1O [10α, 3-deoxy-D-glucoside] | > 25 µM | > 25 µM | > 25 µM | > 25 µM | > 25 µM | > 25 µM | > 25 µM | > 25 µM | > 25 µM | > 25 µM |  |  |  |  |  |  |  |  |  | 
CON(C1CCC2(C)C(CCC3C2CCC2(C)C(C4=CC(=O)OC4)CCC32O)C1)C1OC(CO)C(O)C(O)C1O [42β, L-glucoside] | 0.6 µM | 0.9 µM | 1.2 µM | 0.8 µM | 0.9 µM | 1.3 µM | 1.3 µM | 0.55 µM | 1 µM | 1.9 µM |  |  |  |  |  |  |  |  |  | 
CON(C1CCC2(C)C(CCC3C2CCC2(C)C(C4=CC(=O)OC4)CCC32O)C1)C1OC(C)C(O)C(O)C1O [11β, 6-deoxy-D-glucoside] | 1.9 µM | 4.4 µM | > 25 µM | 1.2 µM | 2.3 µM | 1 µM | 6 µM | 0.95 µM | 4 µM | 2.5 µM |  |  |  |  |  |  |  |  |  | 
CON([C@H]1CC[C@@]2(C)[C@H](CC[C@@H]3[C@@H]2CC[C@]2(C)[C@@H](C4=CC(=O)OC4)CC[C@]32O)C1)[C@@H]1OC[C@@H](O)[C@H](O)[C@H]1O [24β, D-xyloside] | 1.8 µM | 1.2 µM | 0.9 µM | 1.1 µM | 1.8 µM | 1.8 µM | 0.82 µM | 0.54 µM | 1.8 µM | 2.1 µM |  |  |  |  |  |  |  |  |  | 
L-rhamnoside [16β] | 1.8 µM | 0.54 µM | > 25 µM | 0.7 µM | 0.9 µM | 0.33 µM | 0.17 µM | 0.35 µM | 4 µM | 3.3 µM |  |  |  |  |  |  |  |  |  | 
CON(C1CCC2(C)C(CCC3C2CCC2(C)C(C4=CC(=O)OC4)CCC32O)C1)C1OC(CO)C(O)C(O)C1O [18α, D-alloside] | > 25 µM | > 25 µM | > 25 µM | > 25 µM | > 25 µM | > 25 µM | > 25 µM | > 25 µM | > 25 µM | > 25 µM |  |  |  |  |  |  |  |  |  | 
CON(C1CCC2(C)C(CCC3C2CCC2(C)C(C4=CC(=O)OC4)CCC32O)C1)C1OCC(O)C(O)C1O [32α, L-arabinoside] |  |  |  |  |  |  |  |  |  |  | > 25 µM | > 25 µM | > 25 µM | > 25 µM | > 25 µM | > 25 µM | > 25 µM | > 25 µM | > 25 µM | > 25 µM
CON(C1CCC2(C)C(CCC3C2CCC2(C)C(C4=CC(=O)OC4)CCC32O)C1)C1OC(CO)C(O)C(O)C1NC(C)=O [34α, N-acetyl-D-galactosaminoside] |  |  |  |  |  |  |  |  |  |  | > 25 µM | > 25 µM | > 25 µM | > 25 µM | > 25 µM | > 25 µM | > 25 µM | > 25 µM | > 25 µM | > 25 µM
CON(C1CCC2(C)C(CCC3C2CCC2(C)C(C4=CC(=O)OC4)CCC32O)C1)C1OC(CF)C(O)C(O)C1O [13α, 6-deoxy-6-fluoro-D-glucoside] | > 25 µM | > 25 µM | > 25 µM | > 25 µM | > 25 µM | > 25 µM | > 25 µM | > 25 µM | > 25 µM | > 25 µM |  |  |  |  |  |  |  |  |  | 
D-arabinoside [33α] |  |  |  |  |  |  |  |  |  |  | > 25 µM | > 25 µM | > 25 µM | > 25 µM | > 25 µM | > 25 µM | > 25 µM | > 25 µM | > 25 µM | > 25 µM
CON([C@H]1CC[C@@]2(C)[C@H](CC[C@@H]3[C@@H]2CC[C@]2(C)[C@@H](C4=CC(=O)OC4)CC[C@]32O)C1)[C@@H]1OC[C@@H](O)[C@@H](O)[C@H]1O [6β, D-riboside] | 3 µM | 0.9 µM | 0.48 µM | 1.02 µM | 1.3 µM | 0.9 µM | 0.72 µM | 0.66 µM | 1.7 µM | 1.8 µM |  |  |  |  |  |  |  |  |  | 
